These results are taken from patent publication US20250316361A1, “SYSTEMS AND METHODS FOR ESTIMATING, FROM FOOD FREQUENCY QUESTIONNAIRE BASED NUTRIENTS INTAKE DATA, THE RELATIVE AMOUNTS OF FAECALIBACTERIUM PRAUSNITZII (FPRAU) IN THE GUT MICROBIOME ECOSYSTEM AND ASSOCIATED RECOMMENDATIONS TO IMPROVE FAECALIBACTERIUM PRAUSNITZII” (SOCIETE DES PRODUITS NESTLE S.A., priority 2021, published 2025).

The test system of experiment [1] is Faecalibacterium prausnitzii (F. prau). Nature of the experiment: in vitro stool fermentation, quantitative PCR specifically targeting F. prau. The experiment is classed as cell-based. As to conditions: stool inoculum in minimal media, anaerobic, 37 degrees Celsius. The procedure: (§1) Stool samples were collected from a healthy adult donor under human study protocol. Upon the reception of the stool samples, small aliquots were prepared with storage buffer (PBS and 10% glycerol) and were stored at −80 degrees Celsius before use. For each experiment, 250 μL of stool aliquot was inoculated in a 10 mL Hungate tube filled with a minimal bacteria culture media under a strict anaerobic condition (Oxygen <3 ppm) inside of an anaerobic chamber. Different nutrients or nutrient combinations, shown in Table 1, were added to the culture media at time 0 and the tubes were incubated at 37 degrees Celsius for 24 or 48 hours. The growth of Faecalibacterium prausnitzii (F. prau) was examined by two methods: quantitative PCR specifically targeting F. prau and 16S microbial rRNA gene sequencing.
First, we examined the absolute quantity of F. prau in the community after 24 or 48 hours (FIGS. 6A and 6B).

The test system of experiment [2] is Faecalibacterium ASVs (ASV6). Briefly: in vitro stool fermentation, 16S microbial rRNA gene sequencing of Faecalibacterium ASVs. The experiment is classed as cell-based, Faecalibacterium prausnitzii. On the procedure: as §1
F. prau is heterogenic and genetically diverse. Thus, in this next experiment, we examined if nutrient or nutrient combinations favor specific F. prau to grow in a mixed community.

Regarding inulin, in experiment [1] (24 hours, FIG. 6A), the “absolute quantity of F. prau in the community versus control” value is listed as “at least twice as much as control”. Moreover, in experiment [1] (48 hours, FIG. 6B), the “absolute quantity of F. prau in the community” value is “able to maintain a high amount of F. prau”. Besides, the “response of Faecalibacterium ASV1, 6, 9, 12 and 13” value in experiment [2] (14 genetically different Faecalibacterium found, time not stated) is on record as “responded positively”. For the same substance, the “response of F. prau ASV6 (figure legend)” value in experiment [2] (samples collected after 24 hours and after 48 hours, FIG. 7) was “responded”.
